Results reported in publication PMC4979471 (Cell Death Discovery, 2015).
Read-outs that look alike come from different tables or passages of the source.

Tests used:
Test in all cases: Kinase selectivity, P33-radiolabeled assay
Format in all cases: biochemical
Conditions in all cases: 10 μM ATP
[1] = molecular target: T1, ALK (Homo sapiens, UniProt Q9UM73)
T1 construct: purchased Reaction Biology Corp
In short: (§1)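 Reactions contained 10 μM ATP and 10 μM test compound, each run in duplicate. Kinase activity is expressed as a percentage of DMSO-treated controls.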

[2] = molecular target: T2, FRK/PTK5 (Homo sapiens, UniProt P42685)
T2 construct: purchased Reaction Biology Corp
In short: as §1

[3] = molecular target: T3, VRK1 (Homo sapiens, UniProt Q99986)
T3 construct: purchased Reaction Biology Corp
T3 sequence (Q99986 1-396): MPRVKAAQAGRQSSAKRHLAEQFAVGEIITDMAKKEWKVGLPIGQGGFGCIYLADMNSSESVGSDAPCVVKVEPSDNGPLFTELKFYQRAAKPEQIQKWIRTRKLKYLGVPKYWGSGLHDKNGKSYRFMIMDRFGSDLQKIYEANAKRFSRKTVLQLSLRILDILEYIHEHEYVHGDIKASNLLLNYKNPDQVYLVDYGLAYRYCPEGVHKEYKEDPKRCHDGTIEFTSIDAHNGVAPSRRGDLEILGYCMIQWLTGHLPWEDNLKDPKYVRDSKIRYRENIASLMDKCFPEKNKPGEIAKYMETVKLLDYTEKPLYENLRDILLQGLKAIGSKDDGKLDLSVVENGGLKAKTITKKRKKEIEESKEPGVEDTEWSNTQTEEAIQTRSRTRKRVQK
In short: as §1

[4] = read-out: % Enzyme Activity (relative to DMSO controls) AVG
[5] = read-out: % Enzyme Activity (relative to DMSO controls) Data 1
[6] = read-out: % Enzyme Activity (relative to DMSO controls) Data 2

T1 sequence (Q9UM73 19-1620): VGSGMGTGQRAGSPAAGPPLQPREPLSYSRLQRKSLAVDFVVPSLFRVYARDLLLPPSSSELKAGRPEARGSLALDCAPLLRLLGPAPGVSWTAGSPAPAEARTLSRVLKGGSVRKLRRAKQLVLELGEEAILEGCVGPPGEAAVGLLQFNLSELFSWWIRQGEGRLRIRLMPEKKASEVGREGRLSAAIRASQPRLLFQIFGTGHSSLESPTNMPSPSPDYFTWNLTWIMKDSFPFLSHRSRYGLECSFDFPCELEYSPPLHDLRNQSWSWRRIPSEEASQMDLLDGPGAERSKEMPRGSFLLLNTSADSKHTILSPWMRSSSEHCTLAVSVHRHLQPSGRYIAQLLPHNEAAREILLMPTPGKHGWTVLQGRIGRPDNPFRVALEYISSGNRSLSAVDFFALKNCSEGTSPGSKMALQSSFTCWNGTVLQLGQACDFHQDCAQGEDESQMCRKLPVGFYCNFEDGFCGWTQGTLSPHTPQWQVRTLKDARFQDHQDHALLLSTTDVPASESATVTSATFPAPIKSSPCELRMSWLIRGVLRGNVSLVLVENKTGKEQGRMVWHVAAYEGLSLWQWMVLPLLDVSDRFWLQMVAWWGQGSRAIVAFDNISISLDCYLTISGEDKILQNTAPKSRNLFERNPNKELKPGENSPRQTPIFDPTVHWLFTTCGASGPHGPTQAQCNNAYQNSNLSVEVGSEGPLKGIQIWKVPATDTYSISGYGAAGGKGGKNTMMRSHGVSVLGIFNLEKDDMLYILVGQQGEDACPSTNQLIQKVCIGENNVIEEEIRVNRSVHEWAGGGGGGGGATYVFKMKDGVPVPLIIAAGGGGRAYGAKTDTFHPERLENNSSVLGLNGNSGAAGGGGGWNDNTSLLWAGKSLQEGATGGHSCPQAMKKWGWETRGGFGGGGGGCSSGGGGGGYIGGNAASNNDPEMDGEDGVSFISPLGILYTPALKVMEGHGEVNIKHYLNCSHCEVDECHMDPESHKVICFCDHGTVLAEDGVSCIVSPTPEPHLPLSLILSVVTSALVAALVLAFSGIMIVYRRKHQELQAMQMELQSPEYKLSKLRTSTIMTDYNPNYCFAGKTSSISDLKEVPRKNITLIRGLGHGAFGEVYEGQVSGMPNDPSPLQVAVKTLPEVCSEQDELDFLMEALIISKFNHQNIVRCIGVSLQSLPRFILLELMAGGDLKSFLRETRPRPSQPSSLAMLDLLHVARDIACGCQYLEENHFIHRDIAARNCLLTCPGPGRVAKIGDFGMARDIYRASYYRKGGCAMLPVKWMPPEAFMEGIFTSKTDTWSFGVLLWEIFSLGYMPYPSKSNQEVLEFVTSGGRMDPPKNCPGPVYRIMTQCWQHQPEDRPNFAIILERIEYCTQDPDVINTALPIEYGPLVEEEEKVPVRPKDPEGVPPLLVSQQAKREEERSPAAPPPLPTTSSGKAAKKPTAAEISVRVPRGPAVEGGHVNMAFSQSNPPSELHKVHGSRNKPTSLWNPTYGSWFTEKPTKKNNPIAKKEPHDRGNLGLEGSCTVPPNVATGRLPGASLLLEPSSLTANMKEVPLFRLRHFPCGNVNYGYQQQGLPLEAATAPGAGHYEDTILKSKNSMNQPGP
T2 sequence (P42685 whole entry): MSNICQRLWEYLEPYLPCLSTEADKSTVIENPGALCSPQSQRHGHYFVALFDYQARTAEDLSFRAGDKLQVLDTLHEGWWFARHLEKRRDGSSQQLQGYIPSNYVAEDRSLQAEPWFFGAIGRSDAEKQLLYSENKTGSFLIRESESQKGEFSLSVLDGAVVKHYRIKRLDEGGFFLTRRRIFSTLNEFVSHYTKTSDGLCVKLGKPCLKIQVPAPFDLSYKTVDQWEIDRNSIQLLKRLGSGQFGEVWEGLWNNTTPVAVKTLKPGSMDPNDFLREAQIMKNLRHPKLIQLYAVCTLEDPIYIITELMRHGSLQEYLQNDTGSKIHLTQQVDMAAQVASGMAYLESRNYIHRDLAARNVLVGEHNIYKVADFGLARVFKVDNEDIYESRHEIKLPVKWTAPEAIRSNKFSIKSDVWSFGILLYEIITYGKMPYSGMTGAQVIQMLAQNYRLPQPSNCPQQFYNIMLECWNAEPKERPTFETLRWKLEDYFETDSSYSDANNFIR

SMILES: CC(C)(C)C(=O)N1N=CC[C@H]1c1ccccc1 [GSK′963]
- remaining activity at 10 µM [1, 4]: 101%
- remaining activity at 10 µM [1, 5]: 97.3%
- remaining activity at 10 µM [1, 6]: 105%
- remaining activity at 10 µM [2, 4]: 86%
- remaining activity at 10 µM [2, 5]: 87.6%
- remaining activity at 10 µM [2, 6]: 84.4%
- remaining activity at 10 µM [3, 4]: 78.2%
- remaining activity at 10 µM [3, 5]: 80.9%
- remaining activity at 10 µM [3, 6]: 75.4%
